Experimental data published in PubChem BioAssay (NCI).
Where “and” joins values, the source holds several entries; their conditions need not be identical. Equal values may be shown once.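 Each compound was tested at five concentrations against cells in 96-well plates for 48 hours. The concentration for 50% growth inhibition is given as GI50. TGI: concentration producing complete growth inhibition.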

Experiments:
Assay in all cases: growth of human tumour cells (NCI), 48 h
UO-31 renal = system: UO-31 renal
NCI-H460 lung = system: NCI-H460 lung
SF-268 CNS = system: SF-268 CNS
UACC-257 melanoma = system: UACC-257 melanoma
RXF 393 renal = system: RXF 393 renal
OVCAR-8 ovarian = system: OVCAR-8 ovarian
NCI-H522 lung = system: NCI-H522 lung
NCI-H226 lung = system: NCI-H226 lung
SK-OV-3 ovarian = system: SK-OV-3 ovarian

**Q.** How did the TGI (UO-31 renal) turn out when `CCCCCCCCCCC/C(=N/O)c1ccc(O)c2ncccc12` was run?
**A.** The TGI was 11.4 µM.

**Q.** And the TGI (NCI-H460 lung)?
**A.** The TGI was 17 µM.

**Q.** And the TGI (SF-268 CNS)?
**A.** The TGI was > 100 µM.

**Q.** And the TGI (UACC-257 melanoma)?
**A.** The TGI was 24.2 µM.

**Q.** What about the TGI (RXF 393 renal) of the same compound?
**A.** The TGI was 27.6 µM.

**Q.** What about the TGI (OVCAR-8 ovarian) of the same compound?
**A.** Its TGI is 16.2 µM.

**Q.** What about the TGI (NCI-H522 lung) of the same compound?
**A.** The TGI was 6.57 µM.

**Q.** And the TGI (NCI-H226 lung)?
**A.** The TGI was 11.9 µM.

**Q.** How did the TGI (UO-31 renal) turn out when `O=C1C(Cl)=C(Cl)C(=O)N1C1C2CC3CC(C2)CC1C3` (stereo unspecified) was run?
**A.** The TGI was > 100 µM.

**Q.** And the TGI (NCI-H460 lung)?
**A.** Its TGI is > 100 µM.

**Q.** What about the TGI (SK-OV-3 ovarian) of the same compound?
**A.** Its TGI is > 100 µM.

**Q.** And the TGI (SF-268 CNS)?
**A.** Its TGI is > 100 µM.

**Q.** What about the TGI (UACC-257 melanoma) of the same compound?
**A.** The TGI was > 100 µM.

**Q.** And the TGI (RXF 393 renal)?
**A.** Its TGI is > 100 µM.

**Q.** And the TGI (OVCAR-8 ovarian)?
**A.** The TGI was > 100 µM.

**Q.** And the TGI (NCI-H522 lung)?
**A.** The TGI was > 64.5 µM.

**Q.** What about the TGI (NCI-H226 lung) of the same compound?
**A.** Its TGI is > 100 µM.

**Q.** `O=C1c2cccc3cc([N+](=O)[O-])cc(c23)C(=O)N1CCNCCNCCNCCN1C(=O)c2cccc3cc([N+](=O)[O-])cc(c23)C1=O` was tested. Which TGI (UO-31 renal) did it give?
**A.** Its TGI is 2.16 µM.

**Q.** And the TGI (NCI-H460 lung)?
**A.** Its TGI is 0.0413 µM.

**Q.** And the GI50 (SK-OV-3 ovarian)?
**A.** The GI50 was 0.0273 µM.

**Q.** What about the TGI (SK-OV-3 ovarian) of the same compound?
**A.** Its TGI is 0.341 µM and 0.598 µM.

**Q.** And the TGI (SF-268 CNS)?
**A.** Its TGI is 0.7 µM.

**Q.** And the GI50 (UACC-257 melanoma)?
**A.** Its GI50 is 0.0979 µM.

**Q.** What about the TGI (UACC-257 melanoma) of the same compound?
**A.** The TGI was 0.184 µM and 0.334 µM.

**Q.** And the GI50 (RXF 393 renal)?
**A.** The GI50 was 0.0162 µM.

**Q.** And the TGI (RXF 393 renal)?
**A.** Its TGI is 0.269 µM and 0.169 µM.

**Q.** And the TGI (OVCAR-8 ovarian)?
**A.** Its TGI is 0.512 µM.

**Q.** What about the GI50 (NCI-H522 lung) of the same compound?
**A.** The GI50 was < 0.001 µM.

**Q.** And the TGI (NCI-H522 lung)?
**A.** The TGI was 0.101 µM and 0.317 µM.

**Q.** And the TGI (NCI-H226 lung)?
**A.** Its TGI is 0.309 µM and 0.315 µM.

**Q.** With `CC(C)NCCNC(=O)c1ccccc1Nc1c(Cl)cccc1Cl` as the compound, how does the TGI (UO-31 renal) read?
**A.** The TGI was 21.8 µM.

**Q.** And the TGI (NCI-H460 lung)?
**A.** Its TGI is 11 µM.

**Q.** And the TGI (SK-OV-3 ovarian)?
**A.** Its TGI is 28 µM.

**Q.** And the TGI (SF-268 CNS)?
**A.** Its TGI is 34.1 µM.

**Q.** And the TGI (UACC-257 melanoma)?
**A.** Its TGI is 22.3 µM.

**Q.** And the TGI (RXF 393 renal)?
**A.** Its TGI is 17 µM.

**Q.** And the TGI (OVCAR-8 ovarian)?
**A.** The TGI was 34.4 µM.

**Q.** And the TGI (NCI-H226 lung)?
**A.** Its TGI is 30.1 µM.

**Q.** For `Cc1cccc(C(C)(C)C)c1NC(=O)C(=O)C(C(=O)/C=C\c1ccccc1)C1OC(=O)c2ccccc21` (stereo unspecified), which TGI (UO-31 renal) is on record?
**A.** The TGI was > 100 µM.

**Q.** And the TGI (NCI-H460 lung)?
**A.** Its TGI is > 100 µM.

**Q.** And the TGI (SK-OV-3 ovarian)?
**A.** The TGI was > 100 µM.

**Q.** And the TGI (SF-268 CNS)?
**A.** The TGI was > 100 µM.

**Q.** And the TGI (UACC-257 melanoma)?
**A.** Its TGI is > 100 µM.

**Q.** And the TGI (RXF 393 renal)?
**A.** The TGI was > 100 µM.

**Q.** What about the TGI (OVCAR-8 ovarian) of the same compound?
**A.** The TGI was > 100 µM.

**Q.** What about the TGI (NCI-H522 lung) of the same compound?
**A.** Its TGI is > 100 µM.

**Q.** What about the TGI (NCI-H226 lung) of the same compound?
**A.** Its TGI is > 100 µM.

**Q.** What does the source list for `COC(=O)C(CCS(=O)(=O)CC(=O)C(=O)Nc1cccc(C(C)=O)c1)C(=O)OC`?
**A.** TGI (UO-31 renal): > 100 µM; TGI (NCI-H460 lung): > 92 µM; TGI (SK-OV-3 ovarian): > 100 µM; TGI (SF-268 CNS): > 100 µM; TGI (UACC-257 melanoma): > 100 µM; TGI (RXF 393 renal): > 100 µM; TGI (OVCAR-8 ovarian): > 100 µM; TGI (NCI-H522 lung): > 100 µM; TGI (NCI-H226 lung): > 100 µM

**Q.** With `CCOc1ccc(N=Cc2cccc3cccnc23)cc1` as the compound, how does the TGI (NCI-H460 lung) read?
**A.** The TGI was > 100 µM.

**Q.** What about the TGI (SK-OV-3 ovarian) of the same compound?
**A.** The TGI was > 100 µM.

**Q.** And the TGI (SF-268 CNS)?
**A.** Its TGI is > 100 µM.

**Q.** And the TGI (UACC-257 melanoma)?
**A.** Its TGI is > 100 µM.

**Q.** And the TGI (RXF 393 renal)?
**A.** The TGI was > 100 µM.

**Q.** And the TGI (OVCAR-8 ovarian)?
**A.** Its TGI is > 100 µM.

**Q.** What about the TGI (NCI-H226 lung) of the same compound?
**A.** The TGI was > 100 µM.

**Q.** For `[N-]=[N+]=NC(c1cn(C2CC(O)C(CO)O2)c(=O)[nH]c1=O)C(Br)I` (stereo unspecified), which TGI (UO-31 renal) is on record?
**A.** The TGI was > 100 µM.

**Q.** And the TGI (NCI-H460 lung)?
**A.** Its TGI is > 100 µM.

**Q.** What about the TGI (SK-OV-3 ovarian) of the same compound?
**A.** The TGI was > 100 µM.

**Q.** And the TGI (RXF 393 renal)?
**A.** The TGI was > 100 µM.

**Q.** What about the TGI (OVCAR-8 ovarian) of the same compound?
**A.** The TGI was > 100 µM.

**Q.** What about the TGI (NCI-H522 lung) of the same compound?
**A.** Its TGI is > 100 µM.

**Q.** What about the TGI (NCI-H226 lung) of the same compound?
**A.** Its TGI is > 100 µM.

**Q.** For `O=C1C(Cl)C(c2cccc(O)c2)N1n1cnc2ccccc2c1=O` (stereo unspecified), which TGI (UO-31 renal) is on record?
**A.** The TGI was > 100 µM.

**Q.** What about the TGI (NCI-H460 lung) of the same compound?
**A.** The TGI was > 100 µM.

**Q.** And the TGI (SK-OV-3 ovarian)?
**A.** The TGI was > 100 µM.

**Q.** And the TGI (SF-268 CNS)?
**A.** Its TGI is > 100 µM.

**Q.** And the TGI (UACC-257 melanoma)?
**A.** The TGI was > 100 µM.

**Q.** And the TGI (RXF 393 renal)?
**A.** Its TGI is > 100 µM.

**Q.** What about the TGI (OVCAR-8 ovarian) of the same compound?
**A.** The TGI was > 100 µM.

**Q.** What about the TGI (NCI-H522 lung) of the same compound?
**A.** Its TGI is > 100 µM.

**Q.** And the TGI (NCI-H226 lung)?
**A.** The TGI was > 100 µM.

**Q.** `CCCCCCCCCC(=O)CC(=O)c1ccc(O)cc1O` was tested. Which TGI (UO-31 renal) did it give?
**A.** Its TGI is 98 µM.

**Q.** And the TGI (NCI-H460 lung)?
**A.** The TGI was > 100 µM.

**Q.** What about the TGI (SK-OV-3 ovarian) of the same compound?
**A.** The TGI was > 100 µM.

**Q.** And the TGI (SF-268 CNS)?
**A.** The TGI was > 100 µM.

**Q.** And the TGI (UACC-257 melanoma)?
**A.** Its TGI is 71.2 µM.

**Q.** What about the TGI (RXF 393 renal) of the same compound?
**A.** Its TGI is 72.1 µM.

**Q.** And the TGI (OVCAR-8 ovarian)?
**A.** Its TGI is 67.9 µM.

**Q.** What about the TGI (NCI-H522 lung) of the same compound?
**A.** Its TGI is 48.2 µM.

**Q.** What about the TGI (NCI-H226 lung) of the same compound?
**A.** The TGI was 84.9 µM.

**Q.** How did the GI50 (UO-31 renal) turn out when `O=S(=O)([O-])c1cccc2cccc(N=Cc3ccccc3[O-])c12.O=S(=O)([O-])c1cccc2cccc(N=Cc3ccccc3[O-])c12.[O]=[U]=[O]` was run?
**A.** The GI50 was 50.7 µM.

**Q.** And the TGI (UO-31 renal)?
**A.** The TGI was > 100 µM.

**Q.** And the GI50 (NCI-H460 lung)?
**A.** Its GI50 is 55.6 µM.

**Q.** What about the TGI (NCI-H460 lung) of the same compound?
**A.** The TGI was > 100 µM.

**Q.** What about the GI50 (SK-OV-3 ovarian) of the same compound?
**A.** Its GI50 is > 100 µM.

**Q.** What about the TGI (SK-OV-3 ovarian) of the same compound?
**A.** Its TGI is > 100 µM.

**Q.** And the GI50 (SF-268 CNS)?
**A.** Its GI50 is > 100 µM.

**Q.** What about the TGI (SF-268 CNS) of the same compound?
**A.** Its TGI is > 100 µM.

**Q.** What about the GI50 (UACC-257 melanoma) of the same compound?
**A.** The GI50 was > 100 µM.

**Q.** What about the TGI (UACC-257 melanoma) of the same compound?
**A.** The TGI was > 100 µM.

**Q.** What about the GI50 (RXF 393 renal) of the same compound?
**A.** The GI50 was 10.7 µM.

**Q.** And the TGI (RXF 393 renal)?
**A.** The TGI was 25.1 µM.

**Q.** And the GI50 (OVCAR-8 ovarian)?
**A.** Its GI50 is 38.5 µM.

**Q.** What about the TGI (OVCAR-8 ovarian) of the same compound?
**A.** Its TGI is > 100 µM.

**Q.** And the GI50 (NCI-H522 lung)?
**A.** The GI50 was > 100 µM.

**Q.** And the TGI (NCI-H522 lung)?
**A.** Its TGI is > 100 µM.

**Q.** And the GI50 (NCI-H226 lung)?
**A.** Its GI50 is 84.9 µM.

**Q.** And the TGI (NCI-H226 lung)?
**A.** Its TGI is > 100 µM.
